The source of these data is patent publication US10722501B2 (BAYER AKTIENGESELLSCHAFT, priority 2016, dated 2020).

For orientation: IC50 means the point on the concentration scale where inhibition reaches its midpoint.

In this assay the target is T1, recombinant full-length human prolyl endopeptidase (PREP) (Homo sapiens, UniProt P48147).
T1 construct: To recombinant full-length human prolyl endopeptidase (PREP, R&D-Systems, 4308-SE); purchased R&D-Systems 4308-SE
T1 sequence (P48147 1-710): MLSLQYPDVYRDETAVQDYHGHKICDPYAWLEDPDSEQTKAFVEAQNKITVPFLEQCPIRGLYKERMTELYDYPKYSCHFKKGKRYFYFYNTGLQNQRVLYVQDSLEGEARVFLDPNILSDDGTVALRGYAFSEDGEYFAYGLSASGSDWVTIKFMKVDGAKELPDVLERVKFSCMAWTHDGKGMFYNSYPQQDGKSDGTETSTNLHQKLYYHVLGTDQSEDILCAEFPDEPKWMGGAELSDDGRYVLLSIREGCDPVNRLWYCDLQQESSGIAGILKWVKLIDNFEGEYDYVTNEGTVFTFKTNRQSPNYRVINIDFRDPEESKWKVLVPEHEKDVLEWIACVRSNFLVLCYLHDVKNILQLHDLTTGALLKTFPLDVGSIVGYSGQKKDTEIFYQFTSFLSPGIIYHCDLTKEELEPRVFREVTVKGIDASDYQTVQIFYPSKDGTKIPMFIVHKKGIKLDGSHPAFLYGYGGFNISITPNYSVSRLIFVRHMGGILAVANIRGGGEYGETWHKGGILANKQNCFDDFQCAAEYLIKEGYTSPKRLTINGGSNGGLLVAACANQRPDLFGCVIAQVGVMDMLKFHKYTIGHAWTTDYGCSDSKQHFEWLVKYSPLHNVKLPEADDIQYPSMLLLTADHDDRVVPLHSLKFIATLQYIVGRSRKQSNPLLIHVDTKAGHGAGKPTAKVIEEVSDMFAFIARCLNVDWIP
Briefly: Biochemical human prolyl endopeptidase (PREP) assay with fluorescently labelled substrate. Conditions: substrate Z-Gly-Pro-AMC 50 μM, 32° C., 60 min; some as mean values from multiple independent determinations. A digest of the protocol:
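0.4 nM (final, example) recombinant PREP in pH 7.5 Tris buffer with EDTA, GSH, BSA and Brij-35; compounds at 1 nM to 30 μM. Reaction started with 50 μM Z-Gly-Pro-AMC and followed by fluorescence (ex 360/em 465 nm) at 32° C for 60 min. IC50 interpolated from percent activity based on initial slopes.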
Regarding `O=C([C@@H]1CCCc2nn(Cc3ccc(C(F)(F)F)c(Cl)c3)c(=O)n21)N1CCC(F)(F)C1` [Example 460, (5S)-2-[3-Chloro-4-(trifluoromethyl)benzyl]-5-[(3,3-difluoropyrrolidin-1-yl)carbonyl]-5,6,7,8-tetrahydro[1,2,4]triazolo[4,3-a]pyridin-3(2H)-one], the IC50 worked out at 0.17 nM. For `O=C(C1CC(C(F)(F)F)Cc2nn(Cc3ccc(C(F)(F)F)nc3)c(=O)n21)N1CC[C@H](F)C1` (mixture of isomers) [Example 235, (5RS,7RS)-5-{[(3S)-3-Fluoropyrrolidin-1-yl]carbonyl}-7-(trifluoromethyl)-2-{[6-(trifluoromethyl)pyridin-3-yl]methyl}-5,6,7,8-tetrahydro[1,2,4]triazolo[4,3-a]pyridin-3(2H)-one], the half-inhibitory concentration (IC50) was 6.8 nM.

Take `CC1Cc2nn(Cc3ccc(C(F)(F)F)nc3)c(=O)n2C(C(=O)N2CC[C@H](F)C2)C1` (single isomer, unassigned) [Example 138]: the concentration for half-maximal inhibition (IC50) was 1 nM.

Take `O=C(C1C(C(F)(F)F)CCc2nn(Cc3ccnc(C(F)(F)F)c3F)c(=O)n21)N1CC(F)C1` (single isomer, unassigned) [Example 303, (5RS,6RS)-5-[(3-Fluoroazetidin-1-yl)carbonyl]-2-{[3-fluoro-2-(trifluoromethyl)pyridin-4-yl]methyl}-6-(trifluoromethyl)-5,6,7,8-tetrahydro[1,2,4]triazolo[4,3-a]pyridin-3(2H)-one]: the IC50 stood at 35 nM. For the molecule `O=C([C@@H]1CCCc2nn(Cc3ccnc(C(F)(F)F)c3F)c(=O)n21)N1CC[C@H](F)C1` [Example 484, (5S)-5-{[(3S)-3-Fluoropyrrolidin-1-yl]carbonyl}-2-{[3-fluoro-2-(trifluoromethyl)pyridin-4-yl]methyl}-5,6,7,8-tetrahydro[1,2,4]triazolo[4,3-a]pyridin-3(2H)-one], the concentration for half-maximal inhibition (IC50) came to 0.295 nM. Under `Cc1ccc(Cn2nc3n(c2=O)[C@H](C(=O)N2CCCC2)CC3)cc1` [Example 157, (5S)-2-(4-Methylbenzyl)-5-(pyrrolidin-1-ylcarbonyl)-2,5,6,7-tetrahydro-3H-pyrrolo[2,1-c][1,2,4]triazol-3-one] stands 1.3 nM; under `Cc1ccc(Cn2nc3n(c2=O)C(C)(C(=O)N2CCCC2)CCC3)cc1` (racemic) [Example 105, 5(RS)-5-Methyl-2-(4-methylbenzyl)-5-(pyrrolidin-1-ylcarbonyl)-5,6,7,8-tetrahydro[1,2,4]triazolo[4,3-a]pyridin-3(2H)-one], 10.5 nM; under `Cc1nc(-c2ccc(Cn3nc4n(c3=O)C(C(=O)N3CCCC3)CCC4)cc2)no1` (racemic) [Example 10, (5RS)-2-[4-(5-Methyl-1,2,4-oxadiazol-3-yl)benzyl]-5-(pyrrolidin-1-ylcarbonyl)-5,6,7,8-tetrahydro[1,2,4]triazolo[4,3-a]pyridin-3(2H)-one], 24 nM. Under `O=C([C@@H]1CCCc2nn(Cc3cc(C(F)(F)F)nc4ccccc34)c(=O)n21)N1CCCC1` [Example 76, (5S)-5-(Pyrrolidin-1-ylcarbonyl)-2-{[2-(trifluoromethyl)quinolin-4-yl]methyl}-5,6,7,8-tetrahydro[1,2,4]triazolo[4,3-a]pyridin-3(2H)-one] stands 0.38 nM; under `O=C([C@@H]1CCCc2nn(Cc3ccc(C(F)(F)F)nc3)c(=O)n21)N1CCC(F)(F)C1` [Example 426, (5S)-5-[(3,3-Difluoropyrrolidin-1-yl)carbonyl]-2-{[6-(trifluoromethyl)pyridin-3-yl]methyl}-5,6,7,8-tetrahydro[1,2,4]triazolo[4,3-a]pyridin-3(2H)-one], 6.93 nM. For the molecule `O=C(C1CCc2nn(Cc3ccc(Cl)nc3)c(=O)n21)N1C[C@@H](F)[C@@H](F)C1` (mixture of isomers) [Example 172, (5RS)-2-[(6-Chloropyridin-3-yl)methyl]-5-{[(3R,4S)-3,4-difluoropyrrolidin-1-yl]carbonyl}-2,5,6,7-tetrahydro-3H-pyrrolo[2,1-c][1,2,4]triazol-3-one], the IC50 is 6.3 nM. Take `COc1ccc(Cn2nc3n(c2=O)C(C(=O)N2CCCC2)CCC3)cc1` (racemic) [Example 36, (5RS)-2-(4-Methoxybenzyl)-5-(pyrrolidin-1-ylcarbonyl)-5,6,7,8-tetrahydro[1,2,4]triazolo[4,3-a]pyridin-3(2H)-one]: the IC50 worked out at 3.65 nM.

As to `O=C([C@@H]1CCCc2nn(Cc3ccc(C(F)(F)F)c(F)c3)c(=O)n21)N1C[C@@H](F)[C@@H](F)C1` [Example 472, (5S)-5-{[(3R,4S)-3,4-Difluoropyrrolidin-1-yl]carbonyl}-2-[3-fluoro-4-(trifluoromethyl)benzyl]-5,6,7,8-tetrahydro[1,2,4]triazolo[4,3-a]pyridin-3(2H)-one], the IC50 worked out at 0.245 nM.

Consider `CC1CCC(C(=O)N2C[C@@H](F)[C@@H](F)C2)n2c1nn(Cc1ccc(C(F)(F)F)nc1)c2=O` (mixture of isomers) [Example 325, (5RS,8RS)-5-{[(3R,4S)-3,4-Difluoropyrrolidin-1-yl]carbonyl}-8-methyl-2-{[6-(trifluoromethyl)pyridin-3-yl]methyl}-5,6,7,8-tetrahydro[1,2,4]triazolo[4,3-a]pyridin-3(2H)-one], for which the IC50 amounted to 1.5 nM. Take `O=C([C@@H]1CCC(O)c2nn(Cc3cncc(Cl)c3)c(=O)n21)N1CC[C@H](F)C1` (mixture of isomers) [Example 279, (5S,8RS)-2-[(5-Chloropyridin-3-yl)methyl]-5-{[(3S)-3-fluoropyrrolidin-1-yl]carbonyl}-8-hydroxy-5,6,7,8-tetrahydro[1,2,4]triazolo[4,3-a]pyridin-3(2H)-one]: the IC50 came out at 0.485 nM. For `O=C(C1CC(C(F)(F)F)Cc2nn(Cc3ccc(C(F)(F)F)nc3)c(=O)n21)N1CC(F)C(F)C1` (racemic) [Example 582, (5RS,7RS)-5-{[rel-(3R,4R)-3,4-Difluoropyrrolidin-1-yl]carbonyl}-7-(trifluoromethyl)-2-{[6-(trifluoromethyl)pyridin-3-yl]methyl}-5,6,7,8-tetrahydro[1,2,4]triazolo[4,3-a]pyridin-3(2H)-one], the half-inhibitory concentration (IC50) came to 140 nM. Under `O=C([C@@H]1CCCc2nn(Cc3cncc(Cl)c3)c(=O)n21)N1CC(F)C(F)C1` (mixture of isomers) [Example 548, (5S)-2-[(5-Chloropyridin-3-yl)methyl]-5-{[trans-3,4-difluoropyrrolidin-1-yl]carbonyl}-5,6,7,8-tetrahydro[1,2,4]triazolo[4,3-a]pyridin-3(2H)-one] stands 31 nM; under `O=C(C1C(C(F)(F)F)CCc2nn(Cc3ccc(C(F)(F)F)nc3)c(=O)n21)N1CC(F)C1` (single isomer, unassigned) [Example 305, (5RS,6RS)-5-[(3-Fluoroazetidin-1-yl)carbonyl]-6-(trifluoromethyl)-2-{[6-(trifluoromethyl)pyridin-3-yl]methyl}-5,6,7,8-tetrahydro[1,2,4]triazolo[4,3-a]pyridin-3(2H)-one], 14 nM; under `O=C([C@@H]1CCCc2nn(CC3(c4ccc(F)cc4)CC3)c(=O)n21)N1CCC(F)(F)C1` [Example 353, (5S)-5-[(3,3-Difluoropyrrolidin-1-yl)carbonyl]-2-{[1-(4-fluorophenyl)cyclopropyl]methyl}-5,6,7,8-tetrahydro[1,2,4]triazolo[4,3-a]pyridin-3(2H)-one], 2.3 nM.

For the molecule `O=C([C@@H]1CCCc2nn(Cc3cc(F)c(F)cc3F)c(=O)n21)N1C[C@@H](F)[C@@H](F)C1` [Example 492, (5S)-5-{[(3R,4S)-3,4-Difluoropyrrolidin-1-yl]carbonyl}-2-(2,4,5-trifluorobenzyl)-5,6,7,8-tetrahydro[1,2,4]triazolo[4,3-a]pyridin-3(2H)-one], the IC50 worked out at 0.52 nM. As for `O=C([C@@H]1CCCc2nn(Cc3ccnc(C(F)(F)F)c3)c(=O)n21)N1CCCC1` [Example 74, (5S)-5-(Pyrrolidin-1-ylcarbonyl)-2-{[2-(trifluoromethyl)pyridin-4-yl]methyl}-5,6,7,8-tetrahydro[1,2,4]triazolo[4,3-a]pyridin-3(2H)-one], the IC50 was 4.75 nM. Turning to `COc1cccc(Cn2nc3n(c2=O)C(C(=O)N2CCCC2)CCC3)c1` (racemic) [Example 20, (5RS)-2-(3-Methoxybenzyl)-5-(pyrrolidin-1-ylcarbonyl)-5,6,7,8-tetrahydro[1,2,4]triazolo[4,3-a]pyridin-3(2H)-one], the IC50 was 1.5 nM. `COc1ccc(Cn2nc3n(c2=O)[C@H](C(=O)N2CC[C@H](F)C2)CCC3)cn1` [Example 430, (5S)-5-{[(3S)-3-Fluoropyrrolidin-1-yl]carbonyl}-2-[(6-methoxypyridin-3-yl)methyl]-5,6,7,8-tetrahydro[1,2,4]triazolo[4,3-a]pyridin-3(2H)-one]: the half-maximal inhibitory concentration (IC50) came to 1.1 nM.
